7 molecules from US6448262B1, “Pesticidal and parasiticidal use of 2-(substituted thio) thiazolo-[4,5-b]pyridine compounds” (American Cyanamid Company, priority 1998, dated 2002) can be followed below.

What all share (format): in vivo
The test system of data set [1] is Tetranychus urticae (OP-resistant strain), 2-spotted spider mite. In words: 2-spotted spider mite (TSM) plant dip test. To be noted: 300 ppm; mortality counts after 2 days. As to the method: (§1) Subsequent dilutions are made with water as needed.
Tetranychus urticae (OP-resistant Strain), 2-spotted Spider Mite (TSM)
Sieva lima bean plants with primary leaves expanded to 7-8 cm are selected and cut back to one plant per pot. A small piece is cut from an infested leaf taken from the main colony and placed on each leaf of the test plants. This is done about 2 hours before treatment to allow the mites to move over to the test plant to lay eggs. The size of the cut, infested leaf is varied to obtain about 100 mites per leaf. At the time of test treatment, the piece of leaf used to transfer the mites is removed and discarded. The newly-infested plants are dipped in the test solution for 3 seconds with agitation and set in the hood to dry. After 2 days, one leaf is removed and mortality counts are made.

In data set [2] the test system is Diabrotica undecimpunctata howardi, eggs-southern corn rootworm. Briefly: Southern corn rootworm eggs (SCR-Eggs) treated diet test. To be noted: 1000 ppm; mortality counts after 7 days. As to the method:
as §1
(§2) Spodoptera eridania, Eggs-southern Armyworm and Diabrotica undecimpunctata howardi, Eggs-southern Corn Rootworm (SAW-Eggs) and (SCR-Eggs)
(§3) Wells containing artificial diet are treated with the test solutions and dried. The appropriate insect eggs are then placed in the wells. The wells are covered with vented, adhesive, clear plastic covers. After 7 days, mortality counts are made.

Data set [3] concerns Diabrotica virgifera virgifera Leconte, 2nd instar western corn rootworm. In words: Western corn rootworm (WCR) soil jar test. To be noted: 50 ppm; mortality counts after 5 days. Here is the method: as §1
Diabrotica virgifera virgifera Leconte, 2nd Instar Western Corn Rootworm (WCR)
One cc of fine talc is placed in a 30 mL wide-mouth screw-top glass jar. One mL of the appropriate acetone test solution is pipetted onto the talc so as to provide 1.25 mg of active ingredient per jar. The jars are set under a gentle air flow until the acetone is evaporated. The dried talc is loosened, 1 cc of millet seed is added to serve as food for the insects and 25 mL of moist soil is added to each jar. The jar is capped and the contents thoroughly mixed mechanically. Following this, ten 2nd instar rootworms are added to each jar and the jars are loosely capped to allow air exchange for the larvae. The treatments are held for 5 days when mortality counts are made. Missing larvae are presumed dead, since they decompose rapidly and cannot be found. The concentrations of active ingredient used in this test correspond approximately to 50 kg/ha.

Data set [4] has as its system Root-knot nematode, Meloidogyne incognita. Conditions: potted tomato, scored 4 weeks after inoculation. From the text: Soil Nematicide Assay Targeting Root-knot Nematode, Meloidogyne incognita on Potted Tomato
The test compound is solubilized in acetone and diluted with water to the required test concentration. Silty loam soil in a 3 inch pot with a 3-week-old tomato transplant is drenched with the test solution. Four thousand root-knot nematode Meloidogyne incognita J2 larvae are dispensed in a aqueous suspension onto the soil. The pots are kept in the greenhouse and 4 weeks following inoculation of the pots, plant roots are washed free of soil and scored for the degree of root galling using the root-knot galling index identified below.

The test system of data set [5] is Lucilia serricata first instar blowfly larvae. Briefly: Ectoparasiticide evaluation in Lucilia serricata. To be noted: rate 100 ppm; for mortality at 100 ppm: Lucilia. As to the method: Ectoparasiticide Evaluation of Test Compounds in Lucilia serricata
The test compound is dissolved in acetone to a concentration of 100 ppm. 200 μL is added to three 12 mm filter paper disks in 128 well assay trays and allowed to dry. Approximately 20 first instar blowfly larvae and 200 μL bovine serum are added to the disks. Wells are covered with plastic lids and incubated at about 27° C. Mortality is determined at 24 and 48 hours.

The test system of data set [6] is Spodoptera eridania, 2nd instar larvae, southern armyworm. In words: Southern armyworm (SAW) 2nd instar larvae leaf dip test. To be noted: 300 ppm; observations at 5 days.
Description: as §1
Spodoptera eridania, 2nd Instar Larvae, Southern Armyworm (SAW)
A Sieva lima bean leaf expanded to 7-8 cm in length is dipped in the test solution with agitation for 3 seconds and allowed to dry in a hood. The leaf is then placed in a 100×10 mm petri dish containing a damp filter paper on the bottom and ten 2nd instar caterpillars. At 5 days, observations are made of mortality, reduced feeding, or any interference with normal molting.

Another data set relates to C. elegans. In words: Evaluation of test compounds against C. elegans. More on the design: key: 9: complete kill in 4 hours; 8: complete kill in 24 hours; 7: markedly reduced motility in approximately 95% of worms in 24 hours; 0: normal motility, same as controls. Conditions: 300 ppm; observed at 4 and 24 hours post-immersion. As to the method:
Evaluation of Test Compounds Against C. elegans Cultures of C. elegans (Bristol strain from J. Lewis) are maintained on E. coli lawns on NG Agar Plates at […]. New cultures are established weekly. Nematodes for testing are washed from cultures using Na buffer. Compounds are dissolved in 80% acetone. The test material is micropipetted (25 μl) into a single well of a 96-well sterile tissue culture plate and the solvent allowed to evaporate. A freshly prepared volume (50 μl) of C. elegans in Na buffer is micropipetted into each treated well and several control wells per plate. Plates are incubated at 20° C. Observations for efficacy are made under a dissecting microscope at 4 and 24 hours post-immersion. Immediately prior to reading the plate, it is gently tapped to stimulate the movement of the worms. Activity is judged subjectively, but semi-quantitatively, based on the drug effects on motility of the adults and larvae.

The test system of data set [7] is Aphis gossypii, cotton aphid. In words: Cotton aphid (CA) cotyledon dip test. Conditions: 300 ppm; mortality counts after 5 days.
Description: as §1
Aphis gossypii, Cotton Aphid (CA)
Cotton plants at the cotyledon stage are selected and cut back to one plant per pot. A heavily infested leaf is taken from the main colony and placed on top of each cotyledon. The aphids are allowed to transfer to the host plant overnight. At the time of test treatment, the leaf used to transfer the aphids is removed and discarded. The cotyledons are dipped in the test solution and allowed to dry. After 5 days, mortality counts are made.

In data set [8] the test system is Spodoptera eridania, eggs-southern armyworm. In words: Southern armyworm eggs (SAW-Eggs) treated diet test. Conditions: 3000 ppm; mortality counts after 7 days. As to the method: as §1, §2, §3
Where [9] appears, read: 24 hr, read-out: Percent Mortality 24 hr.
Where [10] appears, read: 48 hr, read-out: Percent Mortality 48 hr.

Molecules are shown by their SMILES. Read-outs that look alike come from different tables or passages of the source.

In data set [1], `FC(F)=C(F)CCSc1nc2ncccc2s1` [Example 1, 2-[(4,4,3-Trifluoro-3-butenyl)thio]thiazolo[4,5-b]pyridine] yielded a TSM rating of 0. In addition, in data set [2], the “SCR Eggs rating” value stood at 9. The molecule also came in with a WCR rating in [3] of 0. Also, the “Galling Index” value in [4] (rate 10 ppm soil drench) is 0 (0); in data set [4] (rate 25 ppm soil drench) it was 0^1 (0); in [4] (rate 50 ppm soil drench) it was 0^1 (0). Moreover, the mortality at 100 ppm in [5] (setting [9]) and in [5] (setting [10]) was 100% throughout. In data set [6], this molecule gave an SAW rating of 0. Besides, the “C. elegans activity rating (motility of adults and larvae)” value (from here on “C. elegans activity rating”) in the data set on C. elegans came to 7. The CA rating in [7] is on record as 0. Also, the “SAW Eggs rating” value in data set [8] is given as 8.

In turn, `C=CCSc1nc2ncccc2s1` [Example 2] had a TSM rating in [1] of 0. The “SCR Eggs rating” value in data set [2] is reported as 0. In [3], this molecule returned a WCR rating of 1. In addition, in [5] (24 hr), the “Percent Mortality 24 hr” value came to 0%. Moreover, in data set [5] (48 hr), the “Percent Mortality 48 hr” value amounted to 0%. In data set [6], the SAW rating came out at 0. Besides, the “C. elegans activity rating” value in the data set with C. elegans is listed as 0. Further, the CA rating in [7] worked out at 0. In addition, the “SAW Eggs rating” value in data set [8] is listed as 0.

In data set [1], `COC(=O)CSc1nc2ncccc2s1` [Example 4] came in with a TSM rating of 0. For the same molecule, the “SCR Eggs rating” value in [2] is 0. The WCR rating in data set [3] was 0. The SAW rating in [6] was 0. The “C. elegans activity rating” value in the data set on C. elegans amounted to 9. The CA rating in [7] was 0. Besides, the “SAW Eggs rating” value in data set [8] was 0.

In turn, `CCOC(=O)CSc1nc2ncccc2s1` [Example 5] returned a TSM rating in [1] of 0. For the same molecule, in data set [2], the “SCR Eggs rating” value is recorded as 0. In data set [3], this molecule displayed a WCR rating of 0. For the same molecule, the SAW rating in [6] was 0. Moreover, in the data set on C. elegans, the “C. elegans activity rating” value worked out at 9. Besides, the CA rating in [7] amounted to 0.

For `CCOC(=O)C(C)Sc1nc2ncccc2s1` (centres unmarked) [Example 6], the TSM rating in data set [1] is 0. Further, in [2], the “SCR Eggs rating” value was determined as 0. Besides, the WCR rating in [3] amounted to 0. Moreover, the “Percent Mortality 24 hr” value in [5] (24 hr) is 0%. Moreover, in data set [5] (48 hr), the “Percent Mortality 48 hr” value is 0%. This molecule registered an SAW rating in [6] of 0. In the data set on C. elegans, the “C. elegans activity rating” value turned out to be 9. In data set [7], this molecule gave a CA rating of 0. Further, the “SAW Eggs rating” value in [8] came out at 9.

In [1], `FC(F)(Br)Sc1nc2ncccc2s1` [Example 7, 2-[(Bromodifluoromethyl)thio]thiazolo[4,5-b]pyridine] showed a TSM rating of 5. In [2], the “SCR Eggs rating” value is 9. The molecule also came in with a WCR rating in data set [3] of 9. For the same molecule, the mortality (commonly the percentage killed) at 100 ppm in data set [5] (setting [9]) was 80%; in data set [5] (setting [10]), 100%. Besides, in data set [6], the SAW rating was 0. Moreover, in data set [7], the CA rating was 0. For the same molecule, the “SAW Eggs rating” value in data set [8] came out at 9.

`FC(F)Sc1nc2ncccc2s1` [Example 8, 2-[(Difluoromethyl)thio]thiazolo[4,5-b]pyridine] registered a TSM rating in data set [1] of 8. The “SCR Eggs rating” value in data set [2] was 9. In data set [3], the WCR rating is 9. In addition, the mortality at 100 ppm in [5] (setting [9]) and in data set [5] (setting [10]) was 0% throughout. Besides, the SAW rating in data set [6] turned out to be 0. The molecule also gave a CA rating in [7] of 3. Further, the “SAW Eggs rating” value in [8] is listed as 9.
